Experiments:
[1] = in vivo; cited from earlier work
[2] = in NaCl solution; cited from earlier work
[3] = single dose; cited from earlier work
[4] = cited from earlier work
human hepatocytes = assay: Metabolic stability / conversion to apomorphine on incubation with human hepatocytes

## N[C@@H](Cc1ccc(O)c(O)c1)C(=O)O [L-dopa]
[1]
  plasma half-life: 1 to 1.5 h

## CN1CCc2cccc3c2[C@H]1Cc1ccc(O)c(O)c1-3 [apomorphine]
[2]
  solubility: < 10 mg/mL
[3]
  duration of effect (mean): 40 min
[4]; subcutaneous infusion therapy, meta-analysis
  incidence of nodule formation: 70%
[4]; subcutaneous infusion, within one year
  patients terminating therapy because of irritations: 70%

## Apomorphine Monophosphate Calcium Salt [VIR-1-097-Ca]
other
  solubility in water: Reduced solubility in water

## Apomorphine Monophosphate Potassium Salt [VIR-1-097-K]
other
  solubility in water: highly soluble in water

## apomorphine monophosphate
Human hepatocytes; cell-free negative control
  formation of apomorphine in cell-free control group: no significant formation of apomorphine
Human hepatocytes; human hepatocytes
  conversion of prodrug into apomorphine: rapidly converted into apomorphine
  half-life of apomorphine monophosphate: 33 min
  time of highest amount of apomorphine found: 10 min
Human hepatocytes; human hepatocytes, within 10 min
  apomorphine monophosphate converted to apomorphine: about 30%
Human hepatocytes; human hepatocytes, within 60 minutes
  apomorphine monophosphate consumed: about 75%
